Experimental data taken from patent publication US20040033943A1, “Hcn polypeptides and polynucleotides and their use in therapy” (priority 2000, published 2004).
Read-outs that look alike come from different tables or passages of the source.

Tests used:
[1] = system: organotypic hippocampal slice cultures, hippocampal CA1 region; assay: Oxygen/glucose deprivation of hippocampal organotypic slice cultures (PI staining); format: cell-based, Lister Hooded rat
[2] = system: primary hippocampal neurons; assay: Excitotoxicity in dispersed primary hippocampal cultures (MTT cell survival); format: cell-based, Sprague Dawley rat
HCN channels = conditions: non use-dependent; cited from earlier work
hippocampal cultures = assay: Spontaneous synaptic activity and membrane potential in hippocampal cultures, Mg2+-free insult; format: cell-based, rat; conditions: 100 μM; applied before, during or after the Mg2+-free insult
Procedure: When Mg^2+ containing medium was reinstated 15 mins later there was a sustained increase in spontaneous activity above that recorded prior to the Mg^2+ free challenge. No change in the magnitude of the Ih current was recorded during or after the Mg^2+ free challenge. […] This reduction in activity differed from that induced by the NMDA receptor antagonist AP5 in that the frequency of activity in the presence of ZD7288 was much lower, yet individual events were much larger, than that observed in AP5.

[3] = system: voltage-gated Ca2+ channel; assay: Selectivity: voltage-gated Ca2+ channel activation; format: cell-based; conditions: 100 μM
[4] = system: metabotropic glutamate receptor; assay: Selectivity: metabotropic glutamate receptor activation; format: cell-based; conditions: 100 μM
SCN neurones = assay: Suprachiasmatic nucleus slices, extracellular single unit recordings; format: cell-based, rat; conditions: 10-100 μM; all neurones tested
Procedure: Supraachiasmatic nucleus slices were prepared from 4-6 week old rats that had been sacrificed by cervical dislocation and subsequent decapitation in accordance with UK Home Office guidelines. The brain was removed rapidly and SCN slices prepared by cutting 400 μm thick coronal sections through the whole brain minus the cerebellum using a vibroslicer (Campden Instruments, Loughborough, UK). The resultant SCN slices were placed in a warmed (32-34° C.) submersion recording chamber perfused at 1-2 ml.min^−1 with an oxygen-enriched (95% O2, 5% CO2) artificial cerebrospinal fluid (aCSF) comprised of (mM): NaCl, 124; KCl, 3; NaHCO3, 26; NaH2PO4, 1.25; CaCl2, 2; MgSO4, 1; D-glucose, 10. Extracellular single unit recordings were made using glass microelectrodes (24 MΩ) filled with aCSF placed in the SCN.

Ih = assay: Whole-cell patch-clamp detection of Ih in neurones from both culture models; format: cell-based, rat
hippocampal slices = assay: Epileptiform bursting activity in hippocampal slices (field recordings, area CA3); format: cell-based, rat; conditions: irrespective of model: bicuculline, Mg2+-free, 4-AP, Ca2+-free/elevated K+
Procedure: Hippocampal slices were prepared from 4-6 week old rats that had been sacrificed by cervical dislocation and subsequent decapitation in accordance with UK Home Office guidelines. The brain was removed rapidly and hippocampal slices prepared by cutting 400 μm thick horizontal sections through the whole brain minus the cerebellum using a vibroslicer (Campden Instruments, Loughborough, UK). The hippocampus from these sections was dissected free from the surrounding brain regions and the resultant hippocampal slices placed on a nylon mesh at the interface of a warmed (32-34° C.), perfusing (1-2 ml.min^−1) artificial cerebrospinal fluid (aCSF) and an oxygen-enriched (95% O2, 5% CO2), humidified atmosphere. The standard perfusion medium comprised (mM): NaCl, 124; KCl, 3; NaHCO3, 26; NaH2PO4, 1.25; CaCl2, 2; MgSO4, 1; D-glucose, 10; and was bubbled with 95% O2, 5% CO2. Extracellular field potential recordings were made using glass microelectrodes (24 MΩ) filled with aCSF placed in stratum pyramidale in area CA3. […] Non synaptic field bursting activity (that is relevant to both epilepsy and migraine) was induced by removal of extracellular Ca^2+ and elevation of extracellular K^+ from 3 mM to 6-8 mM (FIG. 12).

NMDA receptor = format: cell-based
[5] = system: voltage-gated Na+ and K+ channels; assay: Selectivity: action potential firing; format: cell-based; conditions: 100 μM

## C[C@]12N[C@H](Cc3ccccc31)c1ccccc12 [MK-801]
[1]
  DAMAGE (% Cell Loss): 34.90 ± 15.99%
[2]
  NEURONAL SURVIVAL (%): 101 ± 1.2%

## CCN(c1ccccc1)c1cc(=NC)n(C)c(C)n1.Cl [ZD7288, N-ethyl-1,6-dihydro-1,2-dimethyl-6-(methylimino)-N-phenyl-4-pyrimidinamine hydrochloride]
HCN channels
  concentration range inhibiting HCN channels: 1 to 300 µM
Hippocampal cultures
  effect on membrane potential / current: induced a membrane potential hyperpolarization/outward current
  effect on spontaneous activity: reduced spontaneous activity
[1]; 100 nM, added 60 minutes before, during, and for 24 h after the insult
  DAMAGE (% Cell Loss): 64.01 ± 4.66%
[1]; 300 nM, added 60 minutes before, during, and for 24 h after the insult
  DAMAGE (% Cell Loss): 15.12 ± 9.54%
[1]; 1 μM, added 60 minutes before, during, and for 24 h after the insult
  DAMAGE (% Cell Loss): 0.72 ± 0.44%
[1]; 10 μM, added 60 minutes before, during, and for 24 h after the insult
  DAMAGE (% Cell Loss): 4.58 ± 3.09%
[1]; 100 μM, added immediately after the insult and for the 24 h recovery period only
  DAMAGE (% Cell Loss): 12.50 ± 8.24%
[1]; applied immediately after oxygen glucose deprivation, FIG. 3
  neuroprotection: neuroprotection was still observed
[1]; treated slices subjected to OGD, single-shock electrical stimulation in stratum radiatum, FIG. 3
  electrophysiological responses in stratum pyramidale and stratum radiatum of area CA1: possible to evoke normal electrophysiological responses
[3]
  direct effects on voltage-gated Ca2+ channel activation: no direct effects
[4]
  direct effects on metabotropic glutamate receptor activation: no direct effects
SCN neurones
  effect on frequency of single unit firing: concentration dependent reduction
Ih; 100 μM
  block of Ih: almost completely blocked
Ih; 0.1-100 μM
  inhibition of hyperpolarization-activated current (Ih): inhibited
[2]; 1 μM, added 30 minutes before, during, and for 24 h after the insult
  NEURONAL SURVIVAL (%): 40.6 ± 4.9%
[2]; 3 μM, added 30 minutes before, during, and for 24 h after the insult
  NEURONAL SURVIVAL (%): 40.1 ± 8.1%
[2]; 10 μM, added 30 minutes before, during, and for 24 h after the insult
  NEURONAL SURVIVAL (%): 48.4 ± 5.5%
[2]; 30 μM, added 30 minutes before, during, and for 24 h after the insult
  NEURONAL SURVIVAL (%): 56.7 ± 2.0%
[2]; 100 μM, added 30 minutes before, during, and for 24 h after the insult
  NEURONAL SURVIVAL (%): 65.9 ± 3.7%
[2]; 100 μM, added during the 24 h recovery period only
  NEURONAL SURVIVAL (%): 78.0 ± 5.5%
[2]; 100 μM, added during the insult only
  NEURONAL SURVIVAL (%): 79.5 ± 2.1%
[2]; 300 μM, added 30 minutes before, during, and for 24 h after the insult
  NEURONAL SURVIVAL (%): 88.5 ± 2.7%
[2]; 300 μM, added during the 24 h recovery period only
  NEURONAL SURVIVAL (%): 101.0 ± 1.2%
[2]; 300 μM, added during the insult only
  NEURONAL SURVIVAL (%): 97.9 ± 9.6%
[2]; FIG. 4
  delay of application after the insult without loss of neuroprotective efficacy: up to 60 minutes
[2]; Rattus norvegicus, Hippocampal neuron, hippocampal neurones, read-out: IC50 for inhibition of damage
  IC50: ~120 µM
Hippocampal slices
  effect on epileptiform bursting activity: concentration dependent inhibition
NMDA receptor
  direct effects on NMDA receptor activation: no direct effects
[5]
  direct effects on action potential firing (activation of voltage-gated Na+ and K+ channels): no direct effects
